In patent US20130224110A1, “USE OF ADENOSINE RECEPTOR SIGNALING TO MODULATE PERMEABILITY OF BLOOD-BRAIN BARRIER” (CORNELL UNIVERSITY, priority 2010, published 2013):

Columns and labels:
Bend.3 cells = test: Albumin uptake assay; format: cell-based, mouse; conditions: BECs, 1 μM, 30 minutes, vs media and vehicle
Experimental: Bend.3 cells grown on collagen coated coverslips were incubated with albumin-alexafluor 594 (50 mg/ml) (Invitrogen) and either media alone, DMSO vehicle, NECA (1 μM), or Lexiscan (1 μM) for 30 minutes. Albumin uptake was visualized (albumin=red) utilizing the Zeiss Axio Imager M1 fluorescent microscope. Total albumin fluorescence was recorded using Zeiss Axio Vision software, and measured utilizing Image-J software.

hCMEC/D3 cells = test: Jurkat cell migration across hCMEC/D3 transwell in vitro BBB; format: cell-based, human; conditions: 24 hours
Experimental: hCMEC/D3 cells were seeded onto Transwell and allowed to grow to confluencey. 2×10^6 Jurkat cells were added to the upper chamber with or without NECA (general adenosine receptor [AR] agonist), CCPA (A1 AR agonist), CGS 21860 (A2A AR agonist), or DMSO vehicle. After 24 hours, migrated cells in the lower chamber were counted. Values are relative to the number of cells that migrate through non-[…]3 seeded transwells.

[1] = cited from earlier work
HCMECD3 cells = test: cAMP levels in human brain endothelial cells (cAMP Screen kit); format: cell-based; conditions: 15 minutes
Experimental: […]3 cells were grown to confluencey on 24 well plates. As adenosine receptor (“AR”) stimulation is known to influence cAMP levels, cells were treated with or without various concentrations of NECA (general AR agonist), CCPA (A1 AR agonist), CGS 21860 (A2A AR agonist), DMSO vehicle, or Forksolin (induces cAMP). After 15 minutes, lysis buffer was added and the cells were frozen at -80 C to stop the reaction. Duplicate samples were used for each condition. cAMP levels were assayed using a cAMP Screen kit (Applied Biosystems, Foster City, Calif.).

blood brain barrier = test: Evans Blue dye extravasation across the blood brain barrier in mice immunized for EAE; format: in vivo; conditions: WT EAE mice, 100 μl 0.01 nM on days 1, 3, 5, 7, 9; dye on day 10
Experimental: In order to determine if activation of adenosine receptors would induce extravazation of Evans Blue dye across the blood brain barrier (BBB), mice were first treated on day one with NECA, a non-selective adenosine receptor agonist (n=2, 100 μl 0.01 nM); and, PBS as a vehicle control (n=2, 100 μl). On day 2 mice were then immunized with CFA-MOG35-55 and pertussis to induce EAE. Then NECA or PBS was administered every other day on day 3, day 5, day 7 and day 9. On day 10, mice were injected intravenously with 200 μl 1% Evans Blue dye ([…] total dye injected). Six hours after administration of Evans Blue, mice were anesthetized with a ketamine/xylazine mix and perfused via the left ventricle with ice cold PBS. Brains were harvested and homogenized in n,n-dimethylformamide (DMF) at 5 μl/mg (v:w). Tissue was incubated for 72 hours at room temperature in DMF to extract the dye. Following extraction, the tissue/solvent mixture was centrifuged at 500×g for 30 minutes and 100 μl of supernatant was read on a BioTex spectrophotometer at 620 nm.

CCNC(=O)[C@H]1O[C@@H](n2cnc3c(N)ncnc32)[C@H](O)[C@@H]1O [NECA, 5′-N-ethylcarboxamido adenosine]
rate of fluorescently-labeled albumin uptake (Bend.3 cells): did not affect the rate of fluorescently-labeled albumin uptake | lymphocyte (Jurkat) migration across the in vitro BBB (hCMEC/D3 cells): induced some migration | half-life [1]: ~5 h | cAMP levels (HCMECD3 cells): increased cAMP levels | BBB permeability to Evans Blue dye (blood brain barrier): increase in BBB permeability over PBS control EAE mice
